According to patent publication US20260231936A1, “COMPOUNDS AND COMPOSITIONS THAT ATTRACT THE SPECIES PSEUDOCOCCUS LONGISPINUS, ATTRACTANT DEVICE AND METHODS FOR CONTROLLING AND/OR MONITORING THE PEST” (Universitat Politècnica de València, priority 2023, published 2026):

How the values were obtained:
[1] = tested on: Pseudococcus longispinus males; assay: Field trial of attraction response of males, persimmon orchard in Alginet; type: in vivo; settings: for Captures (mean) of P. longispinus males: rubber septum carrier loaded with 250 μg, white sticky cardboard trap, six blocks, number of males captured per trap and per day compared
Protocol: (§1) The response of Pseudococcus longispinus males to 2-(1,5-dimethyl-4-methylenecyclopent-2-en-1-yl)ethyl acetate was evaluated by means of a field trial carried out in a persimmon orchard, located in the town of Alginet (Valencia, Spain). Six blocks of 3 devices were installed: (A) a device with a carrier, without attractant and with a trap consisting of a white sticky cardboard (95×150 mm), (B) a device with a carrier loaded with 250 μg of the described substance by Miller et al. in 2009 (e.g. 2-(1,5,5-trimethylcyclopent-2-en-1-yl)ethyl acetate) and a trap consisting of a white sticky cardboard, and (C) a carrier device loaded with 250 μg of 2-(1,5-dimethyl-4-methylenecyclopent-2-en-1-yl)ethyl acetate and a trap consisting of a white sticky cardboard. Within each block, the devices were placed at a distance of 10 m from each other, while the distance between blocks was at least 30 m. The carriers loaded with the substances were of the rubber septa type and were inserted in the center of the trap.
(§2) The captures obtained in each of the traps were reviewed biweekly and the captured individuals were taken to the laboratory to be identified and counted.
(§3) The number of males captured per trap and per day was compared using a variance analysis (ANOVA; LSD test for comparison of means, P<0.05), prior transformation (ln(x+1)) of the data in order to homogenize the variance.

[2] = tested on: Pseudococcus longispinus males; assay: Second field trial of attractant activity, persimmon orchard in L'Alcúdia; type: in vivo; settings: for Attractant activity of baited devices (in words): 250 μg, versus traps without attractant (A); for Captures (mean) of P. longispinus males: rubber septum carrier loaded with 250 μg, white sticky cardboard trap, four blocks
Protocol: as §1, §2, §3
A second field trial was conducted to evaluate the attractant activity of 2-(1,5-dimethyl-4-methylenecyclopent-2-en-1-yl)ethyl propionate, in a persimmon orchard located in L'Alcúdia (Valencia, Spain). Four blocks of 3 devices were installed: (A) a device with a carrier, without attractant and with a trap consisting of a white sticky cardboard (95×150 mm), (B) a device with a carrier loaded with 250 μg of 2-(1,5-dimethyl-4-methylenecyclopent-2-en-1-yl)ethyl propionate and a trap consisting of a white sticky cardboard, and (C) a carrier device loaded with 250 μg of 2-(1,5-dimethyl-4-methylenecyclopent-2-en-1-yl)ethyl acetate and a trap consisting of a white sticky cardboard. The rest of trial conditions were the same as those described above.

[3] = Analysis of attractant content of the carrier after field exposure (emission); type: physicochemical
Protocol: as §1, with “Alginet” left out, “trap. […] Therefore, the average emission during those 21 days is 5.52±1.20 μg/day.” for “trap.”

[4] = tested on: populations of P. longispinus; assay: Preliminary trap tests by UPV in persimmon cultivation, Valencian Community; type: in vivo, Pseudococcus longispinus
From the text: The sex pheromone of the species P. longispinus was described by Millar et al. (Sex pheromone of the longtailed mealybug: a new class of monoterpene structure. Organic Letters 2009, 11, 2683-2685) as the compound 2-(1,5,5-trimethylcyclopent-2-en-1-yl)ethyl acetate, in populations of the species collected in the United States. However, this substance turned out to be ineffective in attracting populations of P. longispinus in persimmon cultivation in the Valencian Community. […] This is not uncommon, and this phenomenon has been described for the mealybug P. ficus, whose Californian populations produce a single-component pheromone, while Israeli populations produce an additional compound (Zada, A., Dunkelblum, E., Assael, F., Harel, M., Cojocaru, M. & Mendel, Z. (2003) Sex pheromone of the vine mealybug, Planococcus ficus in Israel: occurrence of a second component in a mass-reared population. Journal of Chemical Ecology, 29, 977-988).

SMILES | Attractive power of baited devices (in words) ([1]; 250 μg, versus traps without attractant (A) and pheromone described by Millar et al. (B)) | Captures (mean) of P. longispinus males [1] | Attractant activity of baited devices (in words) [2] | Captures (mean) of P. longispinus males [2] | Final content of the substance in the carrier ([3]; after 21 days, carrier initially loaded with 250 μg) [µg] | Average emission ([3]; during 21 days, rubber septum loaded with 250 μg) [µg/day] | Attraction of populations of P. longispinus (in words) ([4]; persimmon cultivation in the Valencian Community) | Males captured by traps baited with virgin females relative to traps baited with the synthetic pheromone ([4]; preliminary tests, virgin females of P. longispinus as comparator) [times]
C=C1C=CC(C)(CCOC(C)=O)C1C (racemic) [Acetate of formula I (C), 2-(1,5-dimethyl-4-methylenecyclopent-2-en-1-yl)ethyl acetate] | significantly higher attractive power | 19.35 b | highest level of captures | 406.58 c | 134 | 5.52 ± 1.20 | – | –
CC(=O)OCCC1(C)C=CCC1(C)C (centres unmarked) [Millar et al. (B), 2-(1,5,5-trimethylcyclopent-2-en-1-yl)ethyl acetate] | – | 0.21 a | – | – | – | – | ineffective | 100
C=C1C=CC(C)(CCOC(=O)CC)C1C (centres unmarked) [Propionate of formula I (B), 2-(1,5-dimethyl-4-methylenecyclopent-2-en-1-yl)ethyl propionate] | – | – | significant attractant activity | 89.07 b | – | – | – | –
